# Source: ChEMBL document CHEMBL4229419, “Phosphorus-containing isothiocyanate-derived mercapturic acids as a useful alternative for parental isothiocyanates in experimental oncology” (Bioorg Med Chem Lett, 2018)
# The source made the active and inactive calls. The calls are words filed in the database; no cut-off is given here.
# How the values were obtained:
# HL60/MX2 = test: Antiproliferative activity against human HL60/MX2 cells after 72 hrs by SRB assay; format: functional, cell-based; settings: HL60/MX2, 72 h
# 4T1 = test: Antiproliferative activity against mouse 4T1 cells after 72 hrs by MTT assay; format: functional, cell-based; settings: 4T1, 72 h
# MES-SA = test: Antiproliferative activity against human MES-SA cells after 72 hrs by SRB assay; format: functional, cell-based
# LoVo [1] = test: Induction of apoptosis in human LoVo cells assessed as caspase-3 activation at 15 uM after 24 hrs by Ac-DEVD-ACC substrate based fluorescence assay relative to control; format: functional
# LoVo [2] = test: Cell cycle arrest in human LoVo cells assessed as accumulation at G2/M phase at 15 uM after 24 hrs by propidium iodide staining based flow cytometry (reference value: 21%); format: functional
# MES-SA/Dx5 = test: Antiproliferative activity against human MES-SA/Dx5 cells after 72 hrs by SRB assay; format: functional, cell-based; settings: MES-SA/Dx5, 72 h
# BALB/3T3 = test: Antiproliferative activity against mouse BALB/3T3 cells after 72 hrs by MTT assay; format: cell-based; settings: BALB/3T3, 72 h
# LoVo [3] = test: Antiproliferative activity against human LoVo cells after 72 hrs by SRB assay; format: functional, cell-based
# [4] = Antiproliferative activity against human LoVo/DX cells after 72 hrs by SRB assay; format: functional, cell-based
# HL-60 = test: Antiproliferative activity against human HL60 cells after 72 hrs by SRB assay; format: functional, cell-based; settings: HL-60, 72 h
# [5] = Resistance index, ratio of IC50 for antiproliferative activity against human HL60/MX2 cells to IC50 for antiproliferative activity against human HL60 cells; format: functional
IC50 (LoVo [3]) [µM],Structure (SMILES),IC50 [4] [µM],other results
1.5,CCOP(=O)(CCCCCCNC(=S)SC[C@H](NC(C)=O)C(=O)O)c1ccccc1 (some centres not stated),2.2,IC50 (HL60/MX2): 0.7 µM; IC50 (4T1): 1.9 µM; IC50 (MES-SA): 2.8 µM; fold change (FC) (LoVo [1]): 2.8; Activity (LoVo [2]): 22%; IC50 (MES-SA/Dx5): 2.6 µM; IC50 (BALB/3T3): 7.9 µM; IC50 (HL-60): 0.4 µM
3.1,CCOC(OCC)P(=O)(CCCCCCNC(=S)SC[C@H](NC(C)=O)C(=O)O)OCC (some centres not stated),10.4,–
3.1,COP(=O)(CCCCN=C=S)c1ccccc1 (configuration not stated),2.3,–
3.1,CC(=O)N[C@@H](CSC(=S)NCCCP(=O)(OC(C)C)OC(C)C)C(=O)O,8.5,–
2.2,CC(=O)N[C@@H](CSC(=S)NCCP(=O)(OCC(C)C)OCC(C)C)C(=O)O,3.9,–
2.5,CCOP(=O)(CCCCNC(=S)SC[C@H](NC(C)=O)C(=O)O)c1ccccc1 (some centres not stated),3.5,–
2.5,COP(=O)(CCCCCNC(=S)SC[C@H](NC(C)=O)C(=O)O)c1ccccc1 (some centres not stated),2.6,–
6.4,CCOC(OCC)P(=O)(CCCCNC(=S)SC[C@H](NC(C)=O)C(=O)O)OCC (some centres not stated),11.3,–
2.2,O=P(CCCCCCN=C=S)(c1ccccc1)c1ccccc1,3.1,–
7,CCOC(OCC)P(=O)(CCCCN=C=S)OCC (configuration not stated),11.2,–
20.5,CC(=O)N[C@@H](CSC(=S)NCCCC[S+](C)[O-])C(=O)O (some centres not stated),14,Activity (LoVo [1]): Active
2,CC(=O)N[C@@H](CSC(=S)NCCP(=O)(c1ccccc1)c1ccccc1)C(=O)O,7.7,–
4.4,CC(=O)N[C@@H](CSC(=S)NCCCCP(=O)(c1ccccc1)c1ccccc1)C(=O)O,8.1,–
3.3,CCOP(=O)(CCCCNC(=S)SC[C@H](NC(C)=O)C(=O)O)OCC,10,–
2,CCOP(=O)(CCCCCNC(=S)SC[C@H](NC(C)=O)C(=O)O)c1ccccc1 (some centres not stated),3.3,–
4.6,CC(=O)N[C@@H](CSC(=S)NCCCP(=O)(c1ccccc1)c1ccccc1)C(=O)O,5.6,–
5,CC(=O)N[C@@H](CSC(=S)NCCP(=O)(OC(C)C)OC(C)C)C(=O)O,8.1,–
2.5,CCOP(=O)(CCCCN=C=S)c1ccccc1 (configuration not stated),4.1,–
2.6,CC(=O)N[C@@H](CSC(=S)NCCCCP(=O)(OC(C)C)OC(C)C)C(=O)O,8.9,–
–,COc1cccc2c1C(=O)c1c(O)c3c(c(O)c1C2=O)C[C@@](O)(C(=O)CO)C[C@@H]3O[C@H]1C[C@H](N)[C@H](O)[C@H](C)O1 [DOXORUBICIN],–,IC50 (MES-SA): 0.16 µM; IC50 (MES-SA/Dx5): 16.2 µM
2.7,COP(=O)(CCCCNC(=S)SC[C@H](NC(C)=O)C(=O)O)c1ccccc1 (some centres not stated),2.9,–
–,O=C1c2c(O)ccc(O)c2C(=O)c2c(NCCNCCO)ccc(NCCNCCO)c21 [MITOXANTRONE],–,Ratio IC50 [5]: 37

IC50 (LoVo [3]) [µM],Structure (SMILES),IC50 [4] [µM],other results
5.1,CCOC(OCC)P(=O)(CCCCCCN=C=S)OCC (configuration not stated),10.6,–
2.2,CCOP(=O)(CCNC(=S)SC[C@H](NC(C)=O)C(=O)O)OCC,8,–
2,O=P(CCN=C=S)(c1ccccc1)c1ccccc1,2.2,–
2.2,O=P(CCCCN=C=S)(c1ccccc1)c1ccccc1,2.2,–
2.1,CC(=O)N[C@@H](CSC(=S)NCCCCCCP(=O)(c1ccccc1)c1ccccc1)C(=O)O,8.1,–
2.2,CCOP(=O)(CCCNC(=S)SC[C@H](NC(C)=O)C(=O)O)c1ccccc1 (some centres not stated),3.4,–
3,CCOC(OCC)P(=O)(CCCCCNC(=S)SC[C@H](NC(C)=O)C(=O)O)OCC (some centres not stated),8.4,–
2.2,CCOP(=O)(CCCNC(=S)SC[C@H](NC(C)=O)C(=O)O)OCC,2.5,–
2.4,CC(=O)N[C@@H](CSC(=S)NCCCCCP(=O)(OC(C)C)OC(C)C)C(=O)O,3.4,–
2.2,CCOP(=O)(CCCCCCNC(=S)SC[C@H](NC(C)=O)C(=O)O)OCC,2.6,–
2.1,COP(=O)(CCCCCCNC(=S)SC[C@H](NC(C)=O)C(=O)O)c1ccccc1 (some centres not stated),2.8,–
1.8,CC(=O)N[C@@H](CSC(=S)NCCCCCCP(=O)(OC(C)C)OC(C)C)C(=O)O,3.4,Ratio IC50 [5]: 5; IC50 (HL60/MX2): 3 µM; IC50 (4T1): 2.5 µM; IC50 (MES-SA): 9.9 µM; fold change (FC) (LoVo [1]): 2.2; Activity (LoVo [2]): 24%; IC50 (MES-SA/Dx5): 10.3 µM; IC50 (BALB/3T3): 10.9 µM; IC50 (HL-60): 0.6 µM
19.3,CC(=O)N[C@@H](CSC(=S)NCCCP(=O)(OCC(C)C)OCC(C)C)C(=O)O,17.9,–
3,CC(=O)N[C@@H](CSC(=S)NCCCCP(=O)(OCC(C)C)OCC(C)C)C(=O)O,9,–
11.1,CC(=O)N[C@@H](CSC(=S)NCCCCCCP(=O)(OCC(C)C)OCC(C)C)C(=O)O,10.9,–
201,CCCCNC(=S)SC[C@H](NC(C)=O)C(=O)O,224,–
2.6,CC(=O)N[C@@H](CSC(=S)NCCCCCP(=O)(OCC(C)C)OCC(C)C)C(=O)O,8.8,–
1.5,CC(=O)N[C@@H](CSC(=S)NCCCCCP(=O)(c1ccccc1)c1ccccc1)C(=O)O,4.3,–
2.3,CCOP(=O)(CCCCCCN=C=S)c1ccccc1 (configuration not stated),4,–
1.8,COP(=O)(CCCCCCN=C=S)c1ccccc1 (configuration not stated),2.3,–
2.2,CCOP(=O)(CCCCCNC(=S)SC[C@H](NC(C)=O)C(=O)O)OCC,4,–
11.5,CC(=O)N[C@@H](CSC(=S)NCc1ccccc1)C(=O)O,15.4,fold change (FC) (LoVo [1]): >10; Activity (LoVo [2]): 49%

Structure (SMILES),IC50 (LoVo [3]) [µM],IC50 [4] [µM],other results
CC(=O)N[C@@H](CSC(=S)NCCCCCCP(=O)(Oc1ccccc1)Oc1ccccc1)C(=O)O,2.5,11.3,–
CC(=O)N[C@@H](CSC(=S)NCCCCCP(=O)(Oc1ccccc1)Oc1ccccc1)C(=O)O,1.9,8,–
CC(=O)N[C@@H](CSC(=S)NCCCP(=O)(Oc1ccccc1)Oc1ccccc1)C(=O)O,2,7.6,–
CC(=O)N[C@@H](CSC(=S)NCCP(=O)(Oc1ccccc1)Oc1ccccc1)C(=O)O,3.5,9,–
CC(=O)N[C@@H](CSC(=S)NCCCCP(=O)(Oc1ccccc1)Oc1ccccc1)C(=O)O,2.2,7.9,–
